Columns and labels:
[1] = test system: PMN's (polymorphonuclear leukocytes); assay: Neutrophil oxidative burst; assay type: cell-based; conditions: Leukocyte, 40 min; normalized to positive control 5×10^−7 M PEP0005; 40 min incubation at RT; read-out: Neutrophil oxidative burst Rel EC50
Experimental: PMN's (polymorphonuclear leukocytes) were isolated and purified from fresh buffy coats by sequential sedimentation, density centrifugation and lysis of contaminating erythrocytes. Buffy coats were incubated with 2% methocel for 30-45 min to differentially sediment red blood cells. The leukocyte-rich supernatant was transferred to lymphoprep tubes to remove mononuclear cells by density centrifugation (400×g, 30 min). The pellet was resuspended and any remaining erythrocytes lysed using 0.2% NaCl for 30 sec before restoring isotonicity by the addition of 1.2% NaCl. This step was repeated until the cell pellet appears relatively free of red blood cells. Cells were resuspended in DPBS (Dulbecco's Phosphate Buffered Saline) (w.o. Ca^2+, Mg^2+) and the concentration adjusted to 1.4×10^6 cells/ml in HBSS (Hanks Balanced Salt solution) (w Ca^2+, Mg^2+) containing 0.1% BSA (Bovine Serum Albumin) and 5 mM glucose just prior to assay initiation. Titrated reference and test compounds were pre-mixed with HE (Hydroethidine) (10 μM final assay concentration) before addition to 96-well plates containing 2.5×10^5 cells. Following 40 min incubation at RT, changes in the respiratory burst was estimated by measuring fluorescence at 579 nm (excitation: 485 nm) using an Envision plate reader.
(§1) Test compound titration curves were fitted to a four-parameter sigmoidal curve after normalizing the effect of the test compound to the effect of the positive control (5×10^−7 M PEP0005). Rel EC50 (relative EC50) denotes the concentration of test compound producing an effect that is midway between the fitted top and bottom.

[2] = test system: Primary human epidermal keratinocytes, HeKa; assay: HeKa cytokine release (IL-8); assay type: cell-based; conditions: normalized to positive control 1.5×10^−7 M PEP0005, 6 h incubation, read-out: HeKa cytokine release (IL-8) Rel EC50
Experimental: Primary human epidermal keratinocytes, HeKa, were seeded (10.000 cells/well) in 96-well plates the day before the assay. Test compounds were diluted in DMSO (dimethyl sulfoxide) and further diluted in assay medium and pipetted into wells of 96 well-plates containing HeKa cells. The plates were incubated for 6 h at 37° C. in humidified air with 5% CO2. Plates were centrifuged briefly to spin down cells at 4° C., the supernatant was removed and analysed by Meso Scale Discovery (MSD) 4-spot cytokine assay (Pro-inflammatory II Ultra Sensitive kit, MSD, MD, USA). The MSD assay employs a sandwich immunoassay format where capture antibodies are coated in a patterned array on the bottom of the wells of a 4-Spot-Multi-MSD plate. Standard samples were incubated in the MULTI-SPOT plates as well, and the cytokine (IL-8) binds to its corresponding capture antibody spot. The cytokine level was quantitated on a SECTOR™ Imager using a cytokine-specific Detection Antibody labelled with MSD SULFO-TAG™ reagent.
as §1, with “(1.5×10^−7” for “(5×10^−7”

[3] = target: Human Protein Kinase C delta (PKCδ) (Homo sapiens (Human), UniProt Q05655); assay: PKC δ binding assay; assay type: biochemical; conditions: kinase activation, γ-33P-ATP, normalized to the effect of DMSO; read-out: PKC-δ binding Rel EC50
Experimental: On the day at experiment Human Protein Kinase C delta (PKCδ, Millipore cat#14-504) was diluted in 20 mM HEPES, 0.03% Triton X-100. Amount of enzyme in each assay was 7.25 ng (final assay volume is 25 μL). All compounds for testing were diluted to 1 mM in 100% DMSO as an intermediary dilution. The compounds were then diluted further to 50 μM, and then serially diluted in 100% DMSO in semi-logarithmic decrements for 12 points. 0.5 μL of each concentration, in duplicate, was pipetted into a dry 96 well assay plate using a TTP Mosquito. Control and blank wells received 0.5 μL of 100% DMSO instead of compound. The assay was built with the addition of 14.5 μL of assay mixture, containing appropriately diluted enzyme and 20 mM HEPES pH 7.4, 0.03% Triton X-100, 0.05 mg/mL phosphatidylserine, and 50 μM ERMRPRKRQGSVRRRV. The assay was started with the addition of 10 μL ATP containing γ-33P-ATP] (specific activity approx. 500 cpm/pmol), to a final assay concentration of 15 μM. The reaction was allowed to proceed at room temperature for 40 minutes before the addition of 5 μL 3% ortho-phosphoric acid. Blank wells were acid blanks, and had 5 μL 3% ortho-phosphoric acid added before the addition of ATP. 10 μL of the stopped reaction products was transferred to a P30 filtermat which was then washed 4 times in 75 mM ortho-phosphoric acid, and once in methanol before drying. The filter was read by liquid scintillation counting using a Wallac Trilux. Rel EC50 (relative EC50) denotes the concentration of test compound that produces a response half-way between the fitted top and the fitted bottom of the curve when activities are normalized to the effect of DMSO.

[4] = target: Human Protein Kinase C betaII (PKCbII) (Homo sapiens (Human), UniProt P05771); assay: PKCbetaII activity assay; assay type: biochemical; conditions: γ-33P-ATP, normalized to the effect of DMSO, read-out: PKC-β binding Rel EC50
Experimental: On the day at experiment Human Protein Kinase C betaII (PKCbII, Millipore cat#14-496) was incubated with 20 mM HEPES pH 7.4, 0.03% Triton X-100, 0.1 mM CaCl2, 0.1 mg/mL phosphatidylserine, 0.1 mg/mL histone H1, 10 mM MgAcetate. Amount of enzyme in each assay was 1.8 ng (final assay volume is 25 μL). The compounds were then diluted to 500 μM, and then serially diluted in 100% DMSO in semi-logarithmic decrements for 12 points. 0.5 μL of each concentration, in duplicate, was pipetted into a dry 96 well assay plate using a TIP Mosquito. Control and blank wells received 0.5 μL of 100% DMSO instead of compound. 14.5 μl kinase in assay buffer was added to each well. The assay was started with the addition of 10 μL ATP containing γ-33P-ATP] (specific activity approx. 500 cpm/pmol), to a final assay concentration of 70 μM. The reaction was allowed to proceed at room temperature for 40 minutes before the addition of 5 μL 3% ortho-phosphoric acid. Blank wells were acid blanks, and had 5 μL 3% ortho-phosphoric acid added before the addition of ATP. 10 μL of the stopped reaction products was transferred to a P30 filtermat which was then washed 4 times in 75 mM ortho-phosphoric acid, and once in methanol before drying. The filter was read by liquid scintillation counting using a Wallac Trilux. Rel EC50 (relative EC50) denotes the concentration of test compound that produces a response half-way between the fitted top and the fitted bottom of the curve when activities are normalized to the effect of DMSO.

Human Protein Kinase C delta (PKCδ), sequence (Q05655 whole entry): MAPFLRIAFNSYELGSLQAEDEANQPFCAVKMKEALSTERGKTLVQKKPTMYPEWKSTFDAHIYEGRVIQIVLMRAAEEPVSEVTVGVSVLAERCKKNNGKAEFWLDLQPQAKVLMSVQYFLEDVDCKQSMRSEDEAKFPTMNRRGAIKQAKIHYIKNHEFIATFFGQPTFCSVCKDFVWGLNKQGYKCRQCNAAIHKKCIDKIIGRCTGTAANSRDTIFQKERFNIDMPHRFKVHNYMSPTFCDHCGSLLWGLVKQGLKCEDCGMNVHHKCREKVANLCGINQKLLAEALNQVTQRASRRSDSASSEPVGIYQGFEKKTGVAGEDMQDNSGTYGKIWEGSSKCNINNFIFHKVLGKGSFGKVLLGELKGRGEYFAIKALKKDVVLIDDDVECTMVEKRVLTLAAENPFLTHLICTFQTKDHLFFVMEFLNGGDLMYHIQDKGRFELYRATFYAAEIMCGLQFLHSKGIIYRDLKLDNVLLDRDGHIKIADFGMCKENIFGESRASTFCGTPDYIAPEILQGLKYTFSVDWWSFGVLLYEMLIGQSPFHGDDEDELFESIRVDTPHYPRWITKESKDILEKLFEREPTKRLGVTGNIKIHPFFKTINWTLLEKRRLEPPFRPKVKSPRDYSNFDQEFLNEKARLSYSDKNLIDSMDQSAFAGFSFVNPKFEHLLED
Human Protein Kinase C betaII (PKCbII), sequence (P05771 other isoform, or with tags, fused parts or gaps): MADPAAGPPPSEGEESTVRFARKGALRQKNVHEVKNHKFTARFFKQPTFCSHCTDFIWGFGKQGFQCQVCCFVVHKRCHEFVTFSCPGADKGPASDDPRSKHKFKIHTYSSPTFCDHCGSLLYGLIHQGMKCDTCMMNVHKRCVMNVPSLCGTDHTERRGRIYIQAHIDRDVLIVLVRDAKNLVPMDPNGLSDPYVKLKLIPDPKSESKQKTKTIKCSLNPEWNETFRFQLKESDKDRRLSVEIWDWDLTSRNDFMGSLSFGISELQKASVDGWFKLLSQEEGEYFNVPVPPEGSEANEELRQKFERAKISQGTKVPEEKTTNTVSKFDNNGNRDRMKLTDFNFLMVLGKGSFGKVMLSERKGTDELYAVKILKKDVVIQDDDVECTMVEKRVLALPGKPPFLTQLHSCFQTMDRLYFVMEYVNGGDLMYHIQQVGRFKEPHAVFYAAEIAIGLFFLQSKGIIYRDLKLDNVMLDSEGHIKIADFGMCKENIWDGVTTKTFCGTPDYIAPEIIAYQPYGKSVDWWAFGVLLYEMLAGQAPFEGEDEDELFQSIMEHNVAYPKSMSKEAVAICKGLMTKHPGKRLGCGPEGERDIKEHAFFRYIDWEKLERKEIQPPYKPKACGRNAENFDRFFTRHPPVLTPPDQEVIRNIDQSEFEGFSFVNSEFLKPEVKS

SMILES | EC50 [1] [nM] | EC50 [2] [nM] | EC50 [3] [nM] | EC50 [4] [nM]
CC1=C[C@]23C(=O)[C@@H](C=C(CO)[C@@H](O)[C@@H]2[C@H]1OC(=O)C1(C)CCCCC1)[C@H]1[C@@H](C[C@H]3C)C1(C)C [Compound 7, 4-deoxyingenol 3-(1-methyl-cyclohexanecarboxylate)] | 9 | 35 | 154 | 0.2
CC1=C[C@]23C(=O)[C@@H](C=C(CO)C[C@]2(O)[C@H]1OC(=O)C1(C)CCCCC1)[C@H]1[C@@H](C[C@H]3C)C1(C)C [Compound 6, 5-deoxyingenol 3-(1-methyl-cyclohexanecarboxylate)] | 7 | 26 | 80 | 0.8
CC1=C[C@@]23CC[C@@H]4[C@H]([C@H](C=C(CO)[C@@H](O)[C@]2(O)[C@H]1OC(=O)C1(C)CCCCC1)C3=O)C4(C)C [Compound 8, 11-desmethyl-ingenol 3-(1-methyl-cyclohexanecarboxylate)] | 4 | 4 | 7 | 0.1
CC1=C[C@]23C(=O)[C@@H](C=C(CO)C[C@@H]2[C@H]1OC(=O)C1(C)CCCCC1)[C@H]1[C@@H](C[C@H]3C)C1(C)C [Compound 5, 4,5-dideoxyingenol 3-(1-methyl-cyclohexanecarboxylate)] | 13 | 130 | 1110 | 6

Reference: patent US9409931B1, “3-O-acyl-ingenol analogues” (LEO LABORATORIES LIMITED, priority 2015, dated 2016)
